Experiments:
neutrophils (NIMP) = details: Tsk/+ mice, IRF5D 1 mg/kg/d subcutaneously, 21 d; Tsk/+ vs. Tsk/+ + IRF5D p<0.025; mean ± SD, n=3, 10 images per antibody; ref [21]; cited from earlier work
[1] = test system: monocytes/macrophages (CD64); details: Tsk/+ mice, IRF5D 1 mg/kg/d subcutaneously, 21 d; Tsk/+ vs. Tsk/+ + IRF5D p<0.025; mean ± SD, n=3, 10 images per antibody; ref [21]; cited from earlier work
extracellular matrix = test: alterations in extracellular matrix of tight-skin mouse; format: in vivo, Tsk/+ mice; details: tight-skin mouse (Tsk/+); abstract statement, no data shown

Substance: Ac-ELDWDADDIRLQIDNPD-NH2 [IRF5D]
- number of neutrophils (NIMP) in the heart (neutrophils (NIMP)): decreased
- number of monocytes/macrophages (CD64) in the heart [1]: decreased
- alterations in extracellular matrix (extracellular matrix): reduced alterations in extracellular matrix
